According to PMC8373216, “Development and Preclinical Evaluation of New Inhaled Lipoglycopeptides for the Treatment of Persistent Pulmonary Methicillin-Resistant Staphylococcus aureus Infections” (Antimicrobial Agents and Chemotherapy, 2021):
Converted amounts (≈) assume the structure as drawn. Like-named read-outs stand apart in the source and are kept apart here.

Legend:
[1] = test system: MRSA ATCC BAA 1556 (USA300); test: In-house broth microdilution MIC screening; type: cell-based, Staphylococcus aureus; details: Staphylococcus aureus; broth microdilution; read-out: MIC Value, MRSA ATCC BAA 1556
MSSA ATCC 29213 = test: In-house broth microdilution MIC screening; type: cell-based; details: Staphylococcus aureus; broth microdilution; read-out: MIC Value, MSSA ATCC 29213
[2] = Single-dose nebulized nose-only inhalation PK in healthy rats; type: in vivo, rat; details: rat, in vivo
Summary of the method: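 Ten or eleven rats per cohort dosed once by nebulized nose-only inhalation, delivered dose estimated from 5 min aerosol filter sampling. Lungs and plasma collected from immediately postdose (~30 min) to 168 h; drug quantified by LC-MS/MS after protein precipitation. PK by noncompartmental analysis, linear up/log down.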

[3] = test system: Staphylococcus lugdunensis; test: Expanded panel broth microdilution MIC; type: cell-based
Enterococcus faecium = test: Expanded panel broth microdilution MIC/MBC; type: cell-based; details: for MIC: Enterococcus faecium, read-out: MIC
Streptococcus agalactiae = test: Expanded panel broth microdilution MIC/MBC; type: cell-based; details: for MIC: Streptococcus agalactiae
[4] = test system: Streptococcus dysgalactiae; test: Expanded panel broth microdilution MIC/MBC; type: cell-based; details: for MIC: Streptococcus dysgalactiae
Streptococcus anginosus = test: Expanded panel broth microdilution MIC/MBC; type: cell-based; details: for MIC: Streptococcus anginosus, read-out: MIC
Clostridium. perfringens = test: microbe, parasite or virus in culture; type: cell-based
[5] = test system: Peptostreptococcus micros; test: Expanded panel broth microdilution MIC; type: cell-based
Cutibacterium acnes = test: Expanded panel broth microdilution MIC; type: cell-based
E. coli = test: Expanded panel broth microdilution MIC; type: cell-based; details: Escherichia coli, read-out: MIC
K. pneumoniae = test: Expanded panel broth microdilution MIC; type: cell-based
P. mirabilis = test: Expanded panel broth microdilution MIC; type: cell-based; details: Proteus mirabilis, ATCC43071; P. mirabilis ATCC 43071; read-out: MIC
P. vulgaris = test: Expanded panel broth microdilution MIC; type: cell-based; details: Proteus vulgaris; P. vulgaris MMX 9373; read-out: MIC
E. cloacae = test: Expanded panel broth microdilution MIC; type: cell-based; details: Enterobacter cloacae, read-out: MIC
C. freundii = test: Expanded panel broth microdilution MIC; type: cell-based; details: Citrobacter freundii; C. freundii MMX 6602; read-out: MIC
S. marcescens = test: Expanded panel broth microdilution MIC; type: cell-based; details: Serratia marcescens, ATCC43862; S. marcescens ATCC 43862; read-out: MIC
Pseudomonas aeruginosa = test: Expanded panel broth microdilution MIC; type: cell-based
Burkholderia cepacia = test: Expanded panel broth microdilution MIC; type: cell-based
Acinetobacter baumannii = test: Expanded panel broth microdilution MIC; type: cell-based; details: Acinetobacter baumannii; for MIC: read-out: MIC
Haemophilus influenzae = test: Expanded panel broth microdilution MIC; type: cell-based; details: for MIC: read-out: MIC
H. parainfluenzae = test: Expanded panel broth microdilution MIC; type: cell-based; details: Haemophilus parainfluenzae; H. parainfluenzae MMX 2529; read-out: MIC
Moraxella catarrhalis = test: Expanded panel broth microdilution MIC; type: cell-based
[6] = test system: MRSA ATCC BAA 1556 (USA300) biofilm; test: Static MRSA biofilm killing, plastic microtiter plate, MEM
[7] = test system: MRSA ATCC BAA 1556 (USA300) biofilm; test: MRSA biofilm killing, MBEC assay system, TSB with 1% human plasma; details: MBEC
[8] = male, Sprague Dawley, inhaled or intranasal

Compound: CCCCCCCCCCNCCN[C@@]1(C)C[C@H](O[C@H]2[C@H](Oc3c4cc5cc3Oc3ccc(cc3Cl)[C@@H](O)[C@@H](NC(=O)[C@@H](CC(C)C)NC)C(=O)N[C@@H](CC(N)=O)C(=O)N[C@H]5C(=O)N[C@H]3C(=O)N[C@H](C(=O)N[C@H](C(=O)O)c5cc(O)cc(O)c5-c5cc3ccc5O)[C@H](O)c3ccc(c(Cl)c3)O4)O[C@H](CO)[C@@H](O)[C@@H]2O)O[C@@H](C)[C@H]1O [RV40, N-decylaminoethylvancomycin]
- MIC [1]: 0.016 µg/mL (≈ 9.8 nM)
- MIC (MSSA ATCC 29213): 0.016 µg/mL (≈ 9.8 nM)
- Pulmonary dose ([2]; male, Sprague Dawley): 0.30 mg/kg
- Drug lung level at 120 h ([2]; male, Sprague Dawley, 120 h): 105%
- Kp [2, 8]: 690
- Lung AUC0-∞ [2, 8]: 9800 µg·h/g
- Lung Cmax [2, 8]: 48 µg/g
- Plasma Cmax [2, 8]: 100 ng/mL
- Elimination from the lung [2]: not measurably eliminated from the lung
- MIC ([3]; S. lugdunensis, 1 isolate): 0.004 µg/mL (≈ 2.45 nM)
- MIC ([3]; Staphylococcus lugdunensis, S. lugdunensis MMX 8724, read-out: MIC): 0.004 µg/mL (≈ 2.45 nM)
- MIC:MBC (Enterococcus faecium; E. faecium VanA VRE): >4
- MIC:MBC (Enterococcus faecium; E. faecium VanB VRE): >8
- MIC (Enterococcus faecium; E. faecium MMX 4204, VSE): 0.004 µg/mL (≈ 2.45 nM)
- MIC (Enterococcus faecium; E. faecium VSE, 1 isolate): 0.004 µg/mL (≈ 2.45 nM)
- MIC (Enterococcus faecium; VRE, E. faecium MMX 173, VanB VRE): 0.008 µg/mL (≈ 4.9 nM)
- MIC (Enterococcus faecium; VRE, E. faecium MMX 851, VanA VRE): 1 µg/mL (≈ 613 nM)
- MIC (Enterococcus faecium; VRE, E. faecium VanA VRE, 1 isolate): 1 µg/mL (≈ 613 nM)
- MIC (Enterococcus faecium; VRE, E. faecium VanB VRE, 1 isolate): 0.008 µg/mL (≈ 4.9 nM)
- MIC:MBC (Streptococcus agalactiae; S. agalactiae, MBC on one organism): 1
- MIC (Streptococcus agalactiae; ATCC13813, S. agalactiae ATCC 13813, read-out: MIC): 0.008 µg/mL (≈ 4.9 nM)
- MIC (Streptococcus agalactiae; S. agalactiae MMX 4088, read-out: MIC): 0.008 µg/mL (≈ 4.9 nM)
- MIC (Streptococcus agalactiae; S. agalactiae MMX 4115, ermR, read-out: MIC): 0.008 µg/mL (≈ 4.9 nM)
- MIC (Streptococcus agalactiae; S. agalactiae ermR, 1 isolate, read-out: MIC): 0.008 µg/mL (≈ 4.9 nM)
- MIC (Streptococcus agalactiae; S. agalactiae, 2 isolates, read-out: MIC (median)): 0.008 µg/mL (≈ 4.9 nM)
- MIC:MBC ([4]; S. dysgalactiae, MBC on one organism): 1
- MIC ([4]; S. dysgalactiae MMX 5121, read-out: MIC): 0.008 µg/mL (≈ 4.9 nM)
- MIC ([4]; S. dysgalactiae MMX 5123, read-out: MIC): 0.12 µg/mL (≈ 73.5 nM)
- MIC ([4]; S. dysgalactiae MMX 5124, read-out: MIC): 0.015 µg/mL (≈ 9.19 nM)
- MIC ([4]; S. dysgalactiae, 3 isolates, read-out: MIC (median)): 0.015 µg/mL (≈ 9.19 nM)
- MIC:MBC (Streptococcus anginosus; S. anginosus AGS): >8
- MIC (Streptococcus anginosus; ATCC33397, S. anginosus (AGS) ATCC 33397): 0.015 µg/mL (≈ 9.19 nM)
- MIC (Streptococcus anginosus; S. anginosus AGS, 1 isolate): 0.015 µg/mL (≈ 9.19 nM)
- MIC (Clostridium. perfringens): 0.015 µg/mL (≈ 9.19 nM)
- MIC (Clostridium. perfringens; ATCC13124): 0.015 µg/mL (≈ 9.19 nM)
- MIC ([5]; P. micros, 1 isolate): 0.06 µg/mL (≈ 36.8 nM)
- MIC ([5]; Parvimonas micra, P. micros MMX 3546, read-out: MIC): 0.06 µg/mL (≈ 36.8 nM)
- MIC (Cutibacterium acnes; ATCC6919, P. acnes ATCC 6919, read-out: MIC): 0.008 µg/mL (≈ 4.9 nM)
- MIC (Cutibacterium acnes; ATCC11827, P. acnes ATCC 11827, read-out: MIC): 0.008 µg/mL (≈ 4.9 nM)
- MIC (Cutibacterium acnes; C. acnes, 2 isolates, read-out: MIC (median)): 0.008 µg/mL (≈ 4.9 nM)
- MIC (E. coli; ATCC25922, E. coli ATCC 25922, non-ESBL): > 64 µg/mL
- MIC (E. coli; E. coli MMX 5684, ESBL (TEM-10)): > 64 µg/mL
- MIC (K. pneumoniae; K. pneumoniae MMX 4679, KPC-2): > 64 µg/mL
- MIC (K. pneumoniae; Klebsiella pneumoniae, K. pneumoniae MMX 2542, read-out: MIC): > 64 µg/mL
- MIC (P. mirabilis): > 64 µg/mL
- MIC (P. vulgaris): > 64 µg/mL
- MIC (E. cloacae; ATCC49141, E. cloacae ATCC 49141): > 64 µg/mL
- MIC (E. cloacae; ATCCBAA1143, E. cloacae ATCC BAA-1143, AmpC): > 64 µg/mL
- MIC (C. freundii): > 64 µg/mL
- MIC (S. marcescens): > 64 µg/mL
- MIC (Pseudomonas aeruginosa): > 64 µg/mL
- MIC (Pseudomonas aeruginosa; ATCC27853, P. aeruginosa ATCC 27853, read-out: MIC): > 64 µg/mL
- MIC (Pseudomonas aeruginosa; P. aeruginosa MMX 2562, MDR, read-out: MIC): > 64 µg/mL
- MIC (Burkholderia cepacia): > 64 µg/mL
- MIC (Burkholderia cepacia; B. cepacia MMX 9040, read-out: MIC): > 64 µg/mL
- MIC range (Acinetobacter baumannii): 32 to 64 µg/mL
- MIC (Acinetobacter baumannii; A. baumannii MMX 3372, MDR): 64 µg/mL (≈ 39200 nM)
- MIC (Acinetobacter baumannii; A. baumannii MMX 6974, colistinR): 32 µg/mL (≈ 19600 nM)
- MIC (Acinetobacter baumannii; NCTC13304, A. baumannii NCTC 13304, OXA-27): > 64 µg/mL
- MIC range (Haemophilus influenzae): 16 to 32 µg/mL
- MIC (Haemophilus influenzae; ATCC49247, H. influenzae ATCC 49247, BL-): 64 µg/mL (≈ 39200 nM)
- MIC (Haemophilus influenzae; H. influenzae MMX 7988, BL+): 32 µg/mL (≈ 19600 nM)
- MIC (H. parainfluenzae): 16 µg/mL (≈ 9800 nM)
- MIC range (Moraxella catarrhalis): 1 to 2 µg/mL
- MIC (Moraxella catarrhalis; ATCC8176, M. catarrhalis ATCC 8176, read-out: MIC): 1 µg/mL (≈ 613 nM)
- MIC (Moraxella catarrhalis; ATCC8193, M. catarrhalis ATCC 8193, read-out: MIC): 32 µg/mL (≈ 19600 nM)
- MIC (Moraxella catarrhalis; M. catarrhalis MMX 3782, read-out: MIC): 1 µg/mL (≈ 613 nM)
- Reduction in MRSA biofilm titer versus control ([6]; doses 1 to 10 μg/ml): ~3 log10 CFU/ml
- Concentrations with statistically significant reduction versus control biofilm ([6]; two-way ANOVA, Bonferroni): ≥ 1.25 µg/mL
- Reduction in MRSA biofilm titer compared to untreated biofilm ([7]; 128 μg/ml): 4 log10 CFU/peg
- Concentrations with statistically significant reduction versus control biofilm ([7]; two-way ANOVA, Bonferroni): ≥ 4 µg/mL
